The text below walks through data of patent US12600709B2, “Nonpeptide somatostatin type 5 receptor agonists and uses thereof” (Crinetics Pharmaceuticals, Inc., priority 2019, dated 2026).

Read-outs that look alike come from different tables or passages of the source.

Test [1] concerns the target T1, human somatostatin receptor subtype 5 (Homo sapiens, UniProt P35346).
T1 construct: expressed in transfected cells
Nature of the test: cAMP assay for SST5R (inhibition of cAMP in CHO-K1 cells). Type of test: cell-based. The settings on record: for EC50: inhibition of cAMP via human SST5 receptor, read-out: SST5 potency; for Fold selectivity for SST5 vs SST2: class symbols, SST5 receptor over SST2 receptor. An outline of the steps:
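CHO-K1 cells stably expressing human SSTR5 were treated 20 min at 37 °C with compounds plus 1.6 μM NKH477 in HBSS, 0.5 mM HEPES pH 7.4, 0.1% BSA, 0.2 mM IBMX. Lysate cAMP measured by HTRF against a standard curve; EC50 from cAMP-versus-concentration plots.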
On the technique in general: Changes in cAMP serve as a functional read-out for many G protein-coupled receptors.

For test [2], the target named is T2, human somatostatin receptor subtype 2 (Homo sapiens, UniProt P30874).
T2 construct: expressed in transfected cells
T2 sequence (P30874 whole entry): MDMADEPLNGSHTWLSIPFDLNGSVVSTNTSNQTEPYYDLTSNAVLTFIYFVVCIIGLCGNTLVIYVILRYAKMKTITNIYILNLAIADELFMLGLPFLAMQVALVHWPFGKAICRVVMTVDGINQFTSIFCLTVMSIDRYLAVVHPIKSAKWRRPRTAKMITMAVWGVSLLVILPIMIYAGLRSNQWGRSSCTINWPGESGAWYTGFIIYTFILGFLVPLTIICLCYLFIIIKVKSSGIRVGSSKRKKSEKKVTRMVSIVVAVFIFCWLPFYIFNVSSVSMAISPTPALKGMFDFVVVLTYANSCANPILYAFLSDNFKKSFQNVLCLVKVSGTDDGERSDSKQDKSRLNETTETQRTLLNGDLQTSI
As to the kind of experiment: cAMP assay for SST2R (inhibition of cAMP in CHO-K1 cells). The note with it: Table B; inhibition of cAMP via human SST2 receptor; read-out: SST2 potency. Type of test: cell-based. In outline: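 CHO-K1 cells stably expressing human SSTR2, plated 4 days prior, treated 20 min at 37° C with 1.6 μM NKH477 plus compound dilutions in HBSS/HEPES pH 7.4/0.1% BSA/0.2 mM IBMX. Lysate cAMP measured by HTRF against standard curve; EC50 from concentration-response.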

T1 sequence (P35346 whole entry): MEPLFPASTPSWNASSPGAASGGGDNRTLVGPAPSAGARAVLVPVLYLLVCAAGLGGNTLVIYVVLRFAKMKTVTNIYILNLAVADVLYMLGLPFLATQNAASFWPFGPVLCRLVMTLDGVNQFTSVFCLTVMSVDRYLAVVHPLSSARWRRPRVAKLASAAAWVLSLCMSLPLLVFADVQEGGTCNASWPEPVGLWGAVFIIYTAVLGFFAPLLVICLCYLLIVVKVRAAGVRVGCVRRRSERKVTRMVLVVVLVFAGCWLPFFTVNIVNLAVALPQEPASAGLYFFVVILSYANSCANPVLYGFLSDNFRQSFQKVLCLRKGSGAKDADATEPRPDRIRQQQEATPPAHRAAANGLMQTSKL

As to `C[C@H](NC(=O)c1cnc(OCC2COC2)c(-c2cc(F)cc(F)c2)c1N1CC[C@](C)(N)C1)C1CC1` [1-266, 4-[(3S)-3-amino-3-methylpyrrolidin-1-yl]-N-[(1S)-1-cyclopropylethyl]-5-(3,5-difluorophenyl)-6-[(oxetan-3-yl)methoxy]pyridine-3-carboxamide], the values for the EC50 in test [1] (Table A), in test [1] (Table B) and in test [2] were less than 10 nM, less than 10 nM and more than 1000 nM, respectively. Further, the “Fold selectivity for SST5 vs SST2” value in test [1] (Table B) is recorded as “+++ (+++=>500)”.
For the compound `C[C@]1(N)CCN(c2c(C(=O)NC3CCCCC3)ccnc2-c2cc(F)cc(F)c2)C1` [3-2, 3-[(3S)-3-amino-3-methylpyrrolidin-1-yl]-N-cyclohexyl-2-(3,5-difluorophenyl)pyridine-4-carboxamide], the EC50 is less than 10 nM in test [1] (Table A), less than 10 nM in test [1] (Table B) and more than 1000 nM in test [2]. Also, the “Fold selectivity for SST5 vs SST2” value in test [1] (Table B) is “+++ (+++=>500)”.
Turning to `Cc1cc(C)cc(-c2cncc(C(=O)NC3CCC(F)(F)CC3)c2N2CC[C@](C)(N)C2)c1` [1-12, 4-[(3S)-3-amino-3-methylpyrrolidin-1-yl]-N-(4,4-difluorocyclohexyl)-5-(3,5-dimethylphenyl)pyridine-3-carboxamide], the values for the EC50 in test [1] (Table A), in test [1] (Table B) and in test [2] were less than 10 nM, less than 10 nM and 100 to 1000 nM, respectively. In test [1] (Table B), the “Fold selectivity for SST5 vs SST2” value was “+++ (+++=>500)”.
`C[C@]1(N)CCN(c2c(C(=O)NCC(F)(F)F)cnc(C#N)c2-c2cc(F)cc(F)c2)C1` [1-92, 4-[(3S)-3-amino-3-methylpyrrolidin-1-yl]-6-cyano-5-(3,5-difluorophenyl)-N-(2,2,2-trifluoroethyl)pyridine-3-carboxamide]: the EC50 in test [1] (Table A) was less than 10 nM; in test [1] (Table B), less than 10 nM; in test [2], 100 to 1000 nM. Moreover, the “Fold selectivity for SST5 vs SST2” value in test [1] (Table B) is recorded as “+++ (+++=>500)”.
Regarding `Cc1ncc(C(=O)N[C@@H](C)C2CC2)c(N2CC[C@](C)(N)C2)c1-c1ccc(F)c(F)c1` [1-288, 4-[(3S)-3-amino-3-methylpyrrolidin-1-yl]-N-[(1S)-1-cyclopropylethyl]-5-(3,4-difluorophenyl)-6-methylpyridine-3-carboxamide], the EC50 is less than 10 nM in test [1] (Table A), less than 10 nM in test [1] (Table B) and 100 to 1000 nM in test [2]. Also, in test [1] (Table B), the “Fold selectivity for SST5 vs SST2” value is reported as “+++ (+++=>500)”.
Take `Cc1cc(F)cc(-c2cncc(C(=O)NC3CCc4ccccc43)c2N2CC[C@](C)(N)C2)c1` (stereo partly drawn) [1-17, 4-[(3S)-3-amino-3-methylpyrrolidin-1-yl]-N-(2,3-dihydro-1H-inden-1-yl)-5-(3-fluoro-5-methylphenyl)pyridine-3-carboxamide]: the EC50 in test [1] (Table A) was less than 10 nM; in test [1] (Table B) it was less than 10 nM; in test [2], 100 to 1000 nM. For the same compound, the “Fold selectivity for SST5 vs SST2” value in test [1] (Table B) was “++ (++=100 to 499)”.
Consider `COc1cc(-c2c(C)ncc(C(=O)N[C@@H](C)C3CC3)c2N2CC[C@](C)(N)C2)ccn1` [1-157, 4-[(3S)-3-amino-3-methylpyrrolidin-1-yl]-N-[(1S)-1-cyclopropylethyl]-2′-methoxy-2-methyl-[3,4′-bipyridine]-5-carboxamide], for which the figures for the EC50 in test [1] (Table A), in test [1] (Table B) and in test [2] were less than 10 nM, less than 10 nM and more than 1000 nM, respectively. Besides, the “Fold selectivity for SST5 vs SST2” value in test [1] (Table B) is on record as “+++ (+++=>500)”.
Turning to `COc1ncc(C(=O)N[C@@H](C)C(F)(F)F)c(N2CC[C@](C)(N)C2)c1-c1cccc2c1OC(F)(F)O2` [1-184, 4-[(3S)-3-amino-3-methylpyrrolidin-1-yl]-5-(2,2-difluoro-2H-1,3-benzodioxol-4-yl)-6-methoxy-N-[(2S)-1,1,1-trifluoropropan-2-yl]pyridine-3-carboxamide], the EC50 in test [1] (Table A) is less than 10 nM; in test [1] (Table B), less than 10 nM; in test [2], 100 to 1000 nM. The “Fold selectivity for SST5 vs SST2” value in test [1] (Table B) is on record as “+++ (+++=>500)”.
For the compound `CC1(NC(=O)c2cncc(-c3cc(F)cc(F)c3)c2N2CC[C@](C)(N)C2)CCC1` [1-34, 4-[(3S)-3-amino-3-methylpyrrolidin-1-yl]-5-(3,5-difluorophenyl)-N-(1-methylcyclobutyl)pyridine-3-carboxamide], the EC50 in test [1] (Table A) was less than 10 nM; in test [1] (Table B), less than 10 nM; in test [2] it was 100 to 1000 nM. In addition, the “Fold selectivity for SST5 vs SST2” value in test [1] (Table B) was “++ (++=100 to 499)”.
As for `C[C@H](NC(=O)c1cnc(C#N)c(-c2ccnc(C(F)(F)F)c2)c1N1CC[C@](C)(N)C1)C(F)(F)F` [1-169, 4-[(3S)-3-amino-3-methylpyrrolidin-1-yl]-2-cyano-2′-(trifluoromethyl)-N-[(2S)-1,1,1-trifluoropropan-2-yl]-[3,4′-bipyridine]-5-carboxamide], the EC50 in test [1] (Table A) was less than 10 nM; in test [1] (Table B) it was less than 10 nM; in test [2] it was 100 to 1000 nM. Besides, in test [1] (Table B), the “Fold selectivity for SST5 vs SST2” value is recorded as “+++ (+++=>500)”.
On to `C[C@]1(N)CCN(c2c(C(=O)NC3CCCCC3)cncc2-c2cc(F)cc(F)c2)C1` [1-112, 4-[(3S)-3-amino-3-methylpyrrolidin-1-yl]-N-cyclohexyl-5-(3,5-difluorophenyl)pyridine-3-carboxamide], for which the EC50 in test [1] (Table A) is less than 10 nM; in test [1] (Table B) it was less than 10 nM; in test [2], 100 to 1000 nM. In addition, the “Fold selectivity for SST5 vs SST2” value in test [1] (Table B) is given as “+++ (+++=>500)”.
Turning to `C[C@H](NC(=O)c1cnc(OCCC(=O)O)c(-c2cc(F)cc(F)c2)c1N1CC[C@](C)(N)C1)C1CC1` [1-264, 3-({4-[(3S)-3-amino-3-methylpyrrolidin-1-yl]-5-{[(1S)-1-cyclopropylethyl]carbamoyl}-3-(3,5-difluorophenyl)pyridin-2-yl}oxy)propanoic acid], the EC50 in test [1] (Table A) is less than 10 nM; in test [1] (Table B) it was less than 10 nM; in test [2], more than 1000 nM. Besides, the “Fold selectivity for SST5 vs SST2” value in test [1] (Table B) is on record as “+++ (+++=>500)”.
With `C[C@H](NC(=O)c1cncc(-c2ccc3cnn(C)c3c2)c1N1CC[C@](C)(N)C1)C1CC1` [1-161, 4-[(3S)-3-amino-3-methylpyrrolidin-1-yl]-N-[(1S)-1-cyclopropylethyl]-5-(1-methyl-1H-indazol-6-yl)pyridine-3-carboxamide], the EC50 is less than 10 nM in test [1] (Table A), less than 10 nM in test [1] (Table B) and more than 1000 nM in test [2]. Further, the “Fold selectivity for SST5 vs SST2” value in test [1] (Table B) is “++ (++=100 to 499)”.
In the case of `CC(C)CNC(=O)c1cnc(C#N)c(-c2ccnc(C(F)(F)F)c2)c1N1CC[C@](C)(N)C1` [1-250, 4-[(3S)-3-amino-3-methylpyrrolidin-1-yl]-2-cyano-N-(2-methylpropyl)-2′-(trifluoromethyl)-[3,4′-bipyridine]-5-carboxamide], the EC50 in test [1] (Table A) was less than 10 nM; in test [1] (Table B), less than 10 nM; in test [2] it was more than 1000 nM. For the same compound, the “Fold selectivity for SST5 vs SST2” value in test [1] (Table B) is listed as “+++ (+++=>500)”.
On to `C[C@H](NC(=O)c1cnc(C#N)c(-c2cc(F)cc(OC(F)F)c2)c1N1CC[C@](C)(N)C1)C(F)(F)F` [1-180, 4-[(3S)-3-amino-3-methylpyrrolidin-1-yl]-6-cyano-5-[3-(difluoromethoxy)-5-fluorophenyl]-N-[(2S)-1,1,1-trifluoropropan-2-yl]pyridine-3-carboxamide], for which the EC50 in test [1] (Table A) is less than 10 nM; in test [1] (Table B), less than 10 nM; in test [2], 10 to 100 nM. Besides, the “Fold selectivity for SST5 vs SST2” value in test [1] (Table B) was “+++ (+++=>500)”.
In the case of `COc1cc(-c2c(C)ncc(C(=O)NC3CCCC3)c2N2CC[C@](C)(N)C2)ccn1` [1-256, 4-[(3S)-3-amino-3-methylpyrrolidin-1-yl]-N-cyclopentyl-2′-methoxy-2-methyl-[3,4′-bipyridine]-5-carboxamide], the EC50 in test [1] (Table A) was less than 10 nM; in test [1] (Table B) it was less than 10 nM; in test [2] it was more than 1000 nM. Moreover, in test [1] (Table B), the “Fold selectivity for SST5 vs SST2” value is “+++ (+++=>500)”.
Turning to `COc1ncc(C(=O)N[C@@H](C)C(F)(F)F)c(N2CC[C@](C)(N)C2)c1-c1ccc(F)c(Cl)c1` [1-261, 4-[(3S)-3-amino-3-methylpyrrolidin-1-yl]-5-(3-chloro-4-fluorophenyl)-6-methoxy-N-[(2S)-1,1,1-trifluoropropan-2-yl]pyridine-3-carboxamide], the results for the EC50 in test [1] (Table A), in test [1] (Table B) and in test [2] were less than 10 nM, less than 10 nM and 100 to 1000 nM, respectively. For the same compound, the “Fold selectivity for SST5 vs SST2” value in test [1] (Table B) is on record as “+++ (+++=>500)”.
Consider `CC(NC(=O)c1cnc(C#N)c(-c2cc(F)cc(F)c2)c1N1CC[C@H](N)C1)C(F)(F)F` (stereo partly drawn) [1-226, 4-[(3S)-3-aminopyrrolidin-1-yl]-6-cyano-5-(3,5-difluorophenyl)-N-(1,1,1-trifluoropropan-2-yl)pyridine-3-carboxamide], for which the EC50 was less than 10 nM in test [1] (Table A), less than 10 nM in test [1] (Table B) and 100 to 1000 nM in test [2]. In addition, the “Fold selectivity for SST5 vs SST2” value in test [1] (Table B) is reported as “++ (++=100 to 499)”.
Turning to `COc1ncc(C(=O)N[C@@H](C)C(F)(F)F)c(N2CC[C@](C)(N)C2)c1-c1ccc2ncn(C)c2c1` [1-182, 4-[(3S)-3-amino-3-methylpyrrolidin-1-yl]-6-methoxy-5-(1-methyl-1H-1,3-benzodiazol-6-yl)-N-[(2S)-1,1,1-trifluoropropan-2-yl]pyridine-3-carboxamide], the figures for the EC50 in test [1] (Table A), in test [1] (Table B) and in test [2] were less than 10 nM, less than 10 nM and more than 1000 nM, respectively. The “Fold selectivity for SST5 vs SST2” value in test [1] (Table B) is “+++ (+++=>500)”.
Take `COc1ncc(C(=O)NC23CC(C2)C3)c(N2CC[C@](C)(N)C2)c1-c1cc(F)cc(F)c1` [1-130, 4-[(3S)-3-amino-3-methylpyrrolidin-1-yl]-N-{bicyclo[1.1.1]pentan-1-yl}-5-(3,5-difluorophenyl)-6-methoxypyridine-3-carboxamide]: the EC50 in test [1] (Table A) was less than 10 nM; in test [1] (Table B), less than 10 nM; in test [2] it was 100 to 1000 nM. The “Fold selectivity for SST5 vs SST2” value in test [1] (Table B) is given as “+++ (+++=>500)”.
